Molecules are shown by their SMILES. Where two headings read alike, the source gives them in different places.

As usually defined, the Dmax is the greatest extent of degradation seen. A word on the DC50: it is the concentration giving 50% degradation.

The assay addresses T1, VAV1 (Homo sapiens, UniProt P15498+Q96SW2).
T1 construct: A heterozygous VAV1 C-terminal HiBiT knock-in pool was generated at Monte Rosa Therapeutics from a clonal Jurkat cell; endogenous in cells; host or cells: Jurkat clone stably expressing LgBiT, homozygous GSPT1-G575N; heterozygous VAV1-HiBiT knock-in pool
In words: VAV1 degradation activity, VAV1-HiBiT knock-in Jurkat luminescence assay (Example A, Table 1). Format: cell-based. The conditions noted are these: VAV1-HiBiT knock-in Jurkat cells; for Dmax: Jurkat. The essentials:
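Jurkat cells carrying VAV1-HiBiT knock-in, plated in RPMI/10% FBS with Endurazine live-cell substrate and pre-incubated ~16 h at 37° C. Compound dosed from 10 μM stock; luminescence read 6 and 24 h later. Response normalised to plate negative/positive controls, EC50 from 3-parameter logistic fit (hillslope 1).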
Background: The HiBiT peptide binds its large partner to form an active luciferase.

[1] abbreviates: luminescence read at 6 and 24 hours, read-out: VAV1 Dmax %.
The mark [2] stands for this setting: luminescence read at 6 and 24 hours, read-out: VAV1 Dmax %, class.
Setting [3] is: luminescence read at 6 and 24 hours, read-out: VAV1 DC50.
[4] abbreviates: luminescence read at 6 and 24 hours, read-out: VAV1 DC50 (nM), class.
Setting [5] is: luminescence read at 6 and 24 hours after compound addition, read-out: VAV1 Dmax %.
The mark [6] stands for this setting: luminescence read at 6 and 24 hours after compound addition, read-out: VAV1 Dmax %, class.
Setting [7] is: luminescence read at 6 and 24 hours after compound addition, read-out: VAV1 DC50.
[8] abbreviates: luminescence read at 6 and 24 hours after compound addition, read-out: VAV1 DC50 (nM), class.

For the molecule `Cn1ccc(=O)n1Cc1ccc(-c2cccc(C3CCC(=O)NC3=O)c2Cl)cc1` (centres unmarked) [Compound 158, 3-(2-chloro-4′-((2-methyl-5-oxo-2,5-dihydro-1H-pyrazol-1-yl)methyl)-[1,1′-biphenyl]-3-yl)piperidine-2,6-dione], the Dmax reads like this: under setting [1], 81.7%; under setting [2], 60 to 90%. For the same molecule, the DC50 reads like this: under setting [3], 74.3 nM; under setting [4], not above 100 nM.

As to `O=C1CCC(c2cccc(-c3ccc(OCCCO)cc3)c2Cl)C(=O)N1` (centres unmarked) [Compound 117], the Dmax is, setting by setting: under setting [1], 72%; under setting [2], 60 to 90%. The DC50 is, setting by setting: under setting [3], 353 nM; under setting [4], 100 to 1000 nM.

As for `COC1CCCC(=O)N1c1ccc(-c2cccc(C3CCC(=O)NC3=O)c2Cl)cc1` (centres unmarked) [Compound 318], the Dmax under setting [1] was found to be 97.2% and the Dmax under setting [2] is more than 90%. The DC50 is, setting by setting: under setting [3], 5.24 nM; under setting [4], not above 100 nM.

Regarding `O=C1CCC(c2cccc(-c3ccc(C4COC4)cc3)c2Cl)C(=O)N1` (centres unmarked) [Compound 198, 3-(2-chloro-4′-(oxetan-3-yl)-[1,1′-biphenyl]-3-yl)piperidine-2,6-dione], the Dmax under setting [1] was determined as 54.6% and the Dmax under setting [2] was less than 60%. The DC50 under setting [3] was 4840 nM and the DC50 under setting [4] is more than 1000 nM.

As to `Nc1ccnn1Cc1ccc(-c2cccc(C3CCC(=O)NC3=O)c2Cl)cc1` (centres unmarked) [Compound 118], the Dmax reads like this: under setting [1], 89.7%; under setting [2], 60 to 90%. For the same molecule, the DC50 is, setting by setting: under setting [3], 39.7 nM; under setting [4], not above 100 nM.

On to `O=C1CCC(c2cccc(-c3ccc(N4CCCCC4)cc3)c2Cl)C(=O)N1` (centres unmarked) [Compound 459, 3-(2-chloro-4′-(piperidin-1-yl)-[1,1′-biphenyl]-3-yl)piperidine-2,6-dione], for which the Dmax by setting is: under setting [1], 84.4%; under setting [2], 60 to 90%. The DC50 reads like this: under setting [3], 122 nM; under setting [4], 100 to 1000 nM.

Consider `CN1Cc2cccc(-c3ccc(-c4cccc(C5CCC(=O)NC5=O)c4Cl)cc3)c2C1=O` (centres unmarked) [Compound 439, 3-(2-chloro-4′-(2-methyl-3-oxoisoindolin-4-yl)-[1,1′-biphenyl]-3-yl)piperidine-2,6-dione], for which the Dmax is, setting by setting: under setting [1], 89.3%; under setting [2], 60 to 90%. The DC50 is 4.48 nM under setting [3] and not above 100 nM under setting [4].

With `CN1CC2(CC2)N(c2ccc(-c3cccc(C4CCC(=O)NC4=O)c3Cl)cc2)C1=O` (centres unmarked) [Compound 342, 3-(2-chloro-4′-(6-methyl-5-oxo-4,6-diazaspiro[2.4]heptan-4-yl)-[1,1′-biphenyl]-3-yl)piperidine-2,6-dione], the Dmax by setting is: under setting [1], 97.7%; under setting [2], more than 90%. The DC50 is 4.56 nM under setting [3] and not above 100 nM under setting [4].

On to `Cn1ccc(COc2ccc(-c3ccc(Cl)c(C4CCC(=O)NC4=O)c3F)cc2)n1` (centres unmarked) [Compound 145, 3-(4-chloro-2-fluoro-4′-((1-methyl-1H-pyrazol-3-yl)methoxy)-[1,1′-biphenyl]-3-yl)piperidine-2,6-dione], for which the Dmax is, setting by setting: under setting [1], 55.5%; under setting [2], less than 60%. The DC50 was 13800 nM under setting [3] and more than 1000 nM under setting [4].

As for `O=C1CCC(c2cccc(-c3ccc(CN4C(=O)COCC45CC5)cc3)c2Cl)C(=O)N1` (centres unmarked) [Compound 264], the Dmax runs as follows: under setting [1], 84.6%; under setting [2], 60 to 90%. For the same molecule, the DC50 is 39.5 nM under setting [3] and not above 100 nM under setting [4].

On to `CN1CCN(c2ccc(-c3cccc(C4CCC(=O)NC4=O)c3Cl)cc2)C(=O)C1` (centres unmarked) [Compound 331], for which the Dmax is 91.6% under setting [1] and more than 90% under setting [2]. Besides, the 50% degradation concentration (DC50) runs as follows: under setting [3], 17.2 nM; under setting [4], not above 100 nM.

For the molecule `O=C1CCC(c2cccc(-c3ccc(N4C(=O)CCCC45CC5)nc3)c2Cl)C(=O)N1` (centres unmarked) [Compound 389, 3-(2-chloro-3-(6-(5-oxo-4-azaspiro[2.5]octan-4-yl)pyridin-3-yl)phenyl)piperidine-2,6-dione], the Dmax under setting [1] turned out to be 88.5% and the Dmax under setting [2] lay within 60 to 90%. Also, the DC50 was 41.4 nM under setting [3] and not above 100 nM under setting [4].

`O=C1CCC(c2cccc(-c3ccc4c(c3)CC(=O)N4)c2Cl)C(=O)N1` (centres unmarked) [Compound 493, 3-(2-chloro-3-(2-oxoindolin-5-yl)phenyl)piperidine-2,6-dione]: the Dmax was 75.7% under setting [5] and 60 to 90% under setting [6]. Further, the DC50 runs as follows: under setting [7], 502 nM; under setting [8], 100 to 1000 nM.

With `CC1(Cc2ccc(-c3cccc(C4CCC(=O)NC4=O)c3Cl)cc2)COC1` (centres unmarked) [Compound 440, 3-(2-chloro-4′-((3-methyloxetan-3-yl)methyl)-[1,1′-biphenyl]-3-yl)piperidine-2,6-dione], the Dmax by setting is: under setting [1], 94.3%; under setting [2], more than 90%. For the same molecule, the DC50 under setting [3] was 21.7 nM and the DC50 under setting [4] is not above 100 nM.

With `Cc1ccc(=O)n(Cc2ccc(-c3cccc(C4CCC(=O)NC4=O)c3Cl)cc2)c1` (centres unmarked) [Compound 188, 3-(2-chloro-4′-((5-methyl-2-oxopyridin-1(2H)-yl)methyl)-[1,1′-biphenyl]-3-yl)piperidine-2,6-dione], the Dmax under setting [1] turned out to be 95% and the Dmax under setting [2] is more than 90%. Further, the DC50 is, setting by setting: under setting [3], 7.16 nM; under setting [4], not above 100 nM.

Take `O=C1CCC(c2cccc(-c3ccc(-n4cccnc4=O)c(F)c3)c2Cl)C(=O)N1` (centres unmarked) [Compound 419, 3-(2-chloro-3′-fluoro-4′-(2-oxopyrimidin-1(2H)-yl)-[1,1′-biphenyl]-3-yl)piperidine-2,6-dione]: the greatest degradation seen (Dmax) reads like this: under setting [1], 90.7%; under setting [2], more than 90%. In addition, the 50% degradation concentration (DC50) was 43.1 nM under setting [3] and not above 100 nM under setting [4].

In the case of `O=C1CCC(c2cccc(-c3ccc(CN4CCCCC4=O)nc3)c2Cl)C(=O)N1` (centres unmarked) [Compound 433, 3-(2-chloro-3-(6-((2-oxopiperidin-1-yl)methyl)pyridin-3-yl)phenyl)piperidine-2,6-dione], the Dmax reads like this: under setting [1], 33.6%; under setting [2], less than 60%. The DC50 under setting [3] was not below 10000 nM and the DC50 under setting [4] is more than 1000 nM.

For `O=C1CCC(c2cccc(-c3cnc(N4C(=O)CCC45CC5)c(F)c3)c2Cl)C(=O)N1` (centres unmarked) [Compound 364, 3-(2-chloro-3-(5-fluoro-6-(5-oxo-4-azaspiro[2.4]heptan-4-yl)pyridin-3-yl)phenyl)piperidine-2,6-dione], the Dmax by setting is: under setting [1], 71.7%; under setting [2], 60 to 90%. In addition, the DC50 runs as follows: under setting [3], 234 nM; under setting [4], 100 to 1000 nM.

`CC1Cc2cc(-c3cccc(C4CCC(=O)NC4=O)c3Cl)ccc2N1` (centres unmarked) [Compound 500, 3-(2-chloro-3-(2-methylindolin-5-yl)phenyl)piperidine-2,6-dione]: the Dmax is 98.5% under setting [5] and more than 90% under setting [6]. Also, the DC50 under setting [7] stood at 7.51 nM and the DC50 under setting [8] was not above 100 nM.

On to `O=C1CC[C@H](c2cccc(-c3ccc(Cn4ccccc4=O)cc3)c2Cl)C(=O)N1` [Compound 201, (R)-3-(2-chloro-4′-((2-oxopyridin-1(2H)-yl)methyl)-[1,1′-biphenyl]-3-yl)piperidine-2,6-dione], for which the Dmax reads like this: under setting [1], 88.7%; under setting [2], 60 to 90%. The DC50 under setting [3] worked out at 203 nM and the half-maximal degradation concentration (DC50) under setting [4] is 100 to 1000 nM.

As to `O=C1CCC(c2cccc(-c3ccc(Cn4ccccc4=O)cc3)c2F)C(=O)N1` (centres unmarked) [Compound 149, 3-(2-fluoro-4′-((2-oxopyridin-1(2H)-yl)methyl)-[1,1′-biphenyl]-3-yl)piperidine-2,6-dione], the Dmax runs as follows: under setting [1], 89.6%; under setting [2], 60 to 90%. The DC50 under setting [3] came to 91.5 nM and the DC50 under setting [4] was not above 100 nM.

On to `O=C1CCC(c2cccc(-c3ccc(CN4C(=O)CCC45CCC5)cc3)c2Cl)C(=O)N1` (centres unmarked) [Compound 293], for which the Dmax under setting [1] is 95.8% and the Dmax under setting [2] was more than 90%. Further, the DC50 under setting [3] was 6.99 nM and the DC50 under setting [4] is not above 100 nM.

As for `O=C1CC[C@](F)(c2cccc(-c3ccc(N4CCCCC4=O)cc3)c2Cl)C(=O)N1` (single isomer, unassigned) [Compound 367], the Dmax is, setting by setting: under setting [1], 90.6%; under setting [2], more than 90%. The 50% degradation concentration (DC50) by setting is: under setting [3], 706 nM; under setting [4], 100 to 1000 nM.

As for `CC(Oc1ccc(-c2cccc(C3CCC(=O)NC3=O)c2Cl)cc1)c1ccn(C)n1` (centres unmarked) [Compound 173, 3-(2-chloro-4′-(1-(1-methyl-1H-pyrazol-3-yl)ethoxy)-[1,1′-biphenyl]-3-yl)piperidine-2,6-dione], the Dmax is 88.1% under setting [1] and 60 to 90% under setting [2]. For the same molecule, the DC50 by setting is: under setting [3], 40.2 nM; under setting [4], not above 100 nM.

Regarding `O=C1CCC(c2cccc(-c3ccc(C(=O)Nc4ccno4)cc3)c2Cl)C(=O)N1` (centres unmarked) [Compound 224, 2′-chloro-3′-(2,6-dioxopiperidin-3-yl)-N-(isoxazol-5-yl)-[1,1′-biphenyl]-4-carboxamide], the Dmax runs as follows: under setting [1], 51.5%; under setting [2], less than 60%. Further, the DC50 under setting [3] worked out at 7800 nM and the DC50 under setting [4] is more than 1000 nM.

For the molecule `O=C1CCC(c2cccc(-c3ccc(CN4Cc5cccnc5C4=O)cc3)c2Cl)C(=O)N1` (centres unmarked) [Compound 299], the Dmax was 91.6% under setting [1] and more than 90% under setting [2]. The DC50 was 91.5 nM under setting [3] and not above 100 nM under setting [4].

The values are drawn from patent publication US12257247B2 (Monte Rosa Therapeutics AG, priority 2023, dated 2025).
